Test results reported in PubChem BioAssay (NCI).
Values joined by “and” are separate entries in the source; they are usually repeats but may differ in a detail not shown here. Identical values can stand only once.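 A five-concentration, 48-hour dose response in 96-well plates underlies each endpoint, interpolated linearly between surrounding concentrations. Abbreviation: GI50, concentration required for 50% inhibition of growth. The concentration for full growth arrest is given as TGI.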

Tests used:
Experiment in all cases: inhibition of tumour cell growth, NCI panel, 48 h
EKVX NSCLC = test system: EKVX NSCLC
KM12 colon = test system: KM12 colon
SF-539 CNS = test system: SF-539 CNS
UO-31 renal = test system: UO-31 renal
SNB-75 CNS = test system: SNB-75 CNS
SF-268 CNS = test system: SF-268 CNS
NCI-H522 lung = test system: NCI-H522 lung
UACC-257 melanoma = test system: UACC-257 melanoma
TK-10 renal = test system: TK-10 renal
LOX IMVI melanoma = test system: LOX IMVI melanoma

Row | SMILES | GI50 (EKVX NSCLC) | TGI (EKVX NSCLC) | GI50 (KM12 colon) | TGI (KM12 colon) | GI50 (SF-539 CNS) | TGI (SF-539 CNS) | GI50 (UO-31 renal) | TGI (UO-31 renal) | GI50 (SNB-75 CNS) | TGI (SNB-75 CNS) | GI50 (SF-268 CNS) | TGI (SF-268 CNS) | GI50 (NCI-H522 lung) | TGI (NCI-H522 lung) | GI50 (UACC-257 melanoma) | TGI (UACC-257 melanoma) | GI50 (TK-10 renal) | TGI (TK-10 renal) | GI50 (LOX IMVI melanoma) | TGI (LOX IMVI melanoma)
1 | CC(C)C[C@H](CC(=O)O)C(=O)N[C@@H](Cc1c[nH]c2ccccc12)C(=O)N[C@@H](C)c1ccccc1 | > 25 µM | > 25 µM | > 25 µM | > 25 µM | > 25 µM | > 25 µM | > 25 µM | > 25 µM | > 25 µM | > 25 µM | > 25 µM | > 25 µM | > 25 µM | > 25 µM | > 25 µM | > 25 µM | > 25 µM | > 25 µM | > 25 µM | > 25 µM
2 | CC(Oc1cc2oc(=O)cc(-c3ccccc3)c2cc1Cl)C(=O)O (stereo not drawn) |  | > 100 µM |  | > 100 µM |  | > 100 µM |  | > 100 µM |  | > 100 µM |  | > 100 µM |  | > 100 µM |  | > 100 µM |  | > 100 µM |  | > 100 µM
3 | CC1(C)OB(c2ccc(N(CCOS(C)(=O)=O)CCOS(C)(=O)=O)cc2)OC1(C)C | 23.4 µM | 58.7 µM | 26.8 µM | > 85 µM | 7.55 µM | 29.9 µM | 16.5 µM | > 64.6 µM | 22.1 µM | 49.3 µM | 23 µM | > 83.7 µM | 14.3 µM | 74.5 µM | 21.6 µM | > 60.5 µM | 18.9 µM | 56.4 µM | 6.98 µM | > 53.3 µM
4 | Cc1cc(F)c(C(=O)Nc2cccc(-c3nncn3C(C)C)n2)cc1-n1cnc(C2CC2)c1 | 13.1 µM | 52.3 µM | 20.7 µM | 95.6 µM | 11.6 µM | 34.4 µM | 3.05 µM | 23.7 µM | 10.3 µM | 64.3 µM | 21.5 µM | > 100 µM | 8.56 µM | 44.1 µM | 32.8 µM | 85.7 µM | 8.12 µM | 92.5 µM | 14.4 µM | 35.9 µM
5 | COC(=O)C(=O)C(CC(=O)Nc1cc(Cl)ccc1Cl)C(=O)OC (stereo not drawn) |  | > 100 µM |  | > 100 µM |  | > 100 µM |  | > 100 µM |  | > 100 µM |  | > 100 µM |  | > 100 µM |  | > 100 µM |  | > 100 µM |  | > 100 µM
6 | CC1=C(C(=O)Nc2cccc(Cl)c2)C(c2ccccc2O)C(C(=O)Nc2cccc(Cl)c2)=C(C)N1 |  | 47.6 µM |  | 31.2 µM |  | 34.3 µM |  | 31.3 µM |  | 43 µM |  | 37.9 µM |  | 34.1 µM |  | 36.6 µM |  | 39.5 µM |  | 39.7 µM
7 | CCCCCCCCCCC(=O)CCCCCCC(=O)O |  | > 100 µM |  | 29.9 µM |  | 43.8 µM |  | 71.9 µM |  | > 100 µM |  | > 100 µM |  | 50.5 µM |  | > 100 µM |  | > 100 µM |  | 31.4 µM
8 | COc1ccc2[nH]c(Cl)c(/C=C3/C(=O)Nc4ccccc43)c2c1 | 2.07 µM | 3.96 µM | 0.563 µM | 3.09 µM | 0.483 µM | 0.731 µM | 0.878 µM | 9.96 µM | 0.252 µM | 0.659 µM | 0.939 µM | 36.5 µM | 0.381 µM | 1.87 µM | 0.984 µM | 11.2 µM | 1.06 µM | 8.74 µM | 0.345 µM | 11.3 µM
9 | N#CCCN(CCC#N)c1ccc(/C=C(/NC(=O)c2cc([N+](=O)[O-])ccc2Cl)C(=O)N=[N+]=[N-])cc1 |  | > 100 µM |  | > 100 µM |  | > 100 µM |  | > 100 µM |  | > 100 µM |  | > 100 µM |  | > 100 µM |  | > 100 µM |  | > 100 µM |  | > 100 µM
10 | N#Cc1ncc(C(Cl)Cl)nc1Cl |  | 3.27 µM |  | 2.7 µM |  | 3.44 µM |  | 3.17 µM |  | 6.64 µM |  | > 7.78 µM |  | 1.74 µM |  | 2.99 µM |  | 3.82 µM |  | 2.97 µM
11 | Cc1ccc2c(c1)[n+](=O)c(C(=O)c1cccs1)c(C(F)(F)F)n2[O-] | 0.729 µM and 0.278 µM | 1.87 µM and 0.746 µM | 0.849 µM and 1.4 µM | 3.79 µM and 16.3 µM | 0.997 µM | 2.36 µM | 1.35 µM | 50 µM | 2.86 µM | 17.3 µM | 0.881 µM and 0.108 µM | 3.31 µM and 0.511 µM | 1.37 µM and 0.23 µM |  | 2.28 µM and 0.237 µM |  | 0.718 µM | 3.22 µM | 0.612 µM and 0.561 µM | 1.76 µM and 1.82 µM
12 | O=c1cc(-c2ccc(Cl)cc2)[nH]c2ccccc12 | 51.4 µM | > 100 µM | 27.2 µM | > 100 µM | 52.8 µM | > 100 µM | > 100 µM | > 100 µM | 37.4 µM | > 100 µM | 83.3 µM | > 100 µM | 59.6 µM | > 100 µM | > 100 µM | > 100 µM | > 100 µM | > 100 µM | 39.3 µM | > 100 µM
